Results on 15 compounds are retold here after patent US20140343000A1 (priority 2011, published 2014).

The subject of one assay is recombinant NL4-3 virus (Renilla luciferase in nef, Gag P373S; NLRluc) in MT-2 cells. The assay is described as follows: whole plant or invertebrate. The format is cell-based, HIV. To be noted: Renilla, NL43, luciferase activity in cells infected for 4-5 days with NLRluc recombinants, serial dilutions of inhibitor; class symbols (key in Table 1); read-out: EC50. The method in brief:
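MT-2 cells in RPMI 1640 with 10% heat-inactivated FBS were infected with the reporter virus, made by transfecting the proviral clone into 293T cells, and cultured 4-5 days with serial inhibitor dilutions. Antiviral activity was quantified from Renilla luciferase activity measured in lysed cells.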
For `C=C(C)[C@@H]1CC[C@]2(NC(=O)C(C)N3CCS(=O)(=O)CC3)CC[C@]3(C)[C@H](CC[C@@H]4[C@@]5(C)CC=C(c6ccc(C(=O)O)cc6)C(C)(C)[C@@H]5CC[C@]43C)[C@@H]12` (stereo partly drawn) [Example 93, benzoic acid, 4-[(1R,3aS,5aR,5bR,7aR,11aS,11bR,13aR,13bR)-3a-[[2-(1,1-dioxido-4-thiomorpholinyl)-1-oxopropyl]amino]-2,3,3a,4,5,5a,5b,6,7,7a,8,11,11a,11b,12,13,13a,13b-octadecahydro-5a,5b,8,8,11a-pentamethyl-1-(1-methylethenyl)-1H-cyclopenta[a]chrysen-9-yl]], the half-maximal effective concentration (EC50) was less than 100 nM. Still for that read-out and setting: the same measure for `C=C(C)[C@@H]1CC[C@]2(NC(=O)CN3CC(F)(F)C3)CC[C@]3(C)[C@H](CC[C@@H]4[C@@]5(C)CC=C(c6ccc(C(=O)O)cc6)C(C)(C)[C@@H]5CC[C@]43C)[C@@H]12` [Example 94, 4-((1R,3aS,5aR,5bR,7aR,11aS,11bR,13aR,13bR)-3a-(2-(3,3-difluoroazetidin-1-yl)acetamido)-5a,5b,8,8,11a-pentamethyl-1-(prop-1-en-2-yl)-2,3,3a,4,5,5a,5b,6,7,7a,8,11,11a,11b,12,13,13a,13b-octadecahydro-1H-cyclopenta[a]chrysen-9-yl)benzoic acid]: less than 100 nM; for `C=C(C)[C@@H]1CC[C@]2(NC(=O)CN3CCCC3=O)CC[C@]3(C)[C@H](CC[C@@H]4[C@@]5(C)CC=C(c6ccc(C(=O)O)cc6)C(C)(C)[C@@H]5CC[C@]43C)[C@@H]12` [Example 95, 4-((1R,3aS,5aR,5bR,7aR,11aS,11bR,13aR,13bR)-5a,5b,8,8,11a-pentamethyl-3a-(2-(2-oxopyrrolidin-1-yl)acetamido)-1-(prop-1-en-2-yl)-2,3,3a,4,5,5a,5b,6,7,7a,8,11,11a,11b,12,13,13a,13b-octadecahydro-1H-cyclopenta[a]chrysen-9-yl)benzoic acid]: less than 100 nM. Still for that read-out and setting: with `C=C(C)[C@@H]1CC[C@]2(NC(=O)CN3CCN(C(C)C)CC3)CC[C@]3(C)[C@H](CC[C@@H]4[C@@]5(C)CC=C(c6ccc(C(=O)O)cc6)C(C)(C)[C@@H]5CC[C@]43C)[C@@H]12` [Example 96, 4-((1R,3aS,5aR,5bR,7aR,11aS,11bR,13aR,13bR)-3a-(2-(4-isopropylpiperazin-1-yl)acetamido)-5a,5b,8,8,11a-pentamethyl-1-(prop-1-en-2-yl)-2,3,3a,4,5,5a,5b,6,7,7a,8,11,11a,11b,12,13,13a,13b-octadecahydro-1H-cyclopenta[a]chrysen-9-yl)benzoic acid] the figure was less than 100 nM; with `C=C(C)[C@@H]1CC[C@]2(NC(=O)CN3CCOCC3)CC[C@]3(C)[C@H](CC[C@@H]4[C@@]5(C)CC=C(c6ccc(C(=O)O)cc6)C(C)(C)[C@@H]5CC[C@]43C)[C@@H]12` [Example 97, 4-((1R,3aS,5aR,5bR,7aR,11aS,11bR,13aR,13bR)-5a,5b,8,8,11a-pentamethyl-3a-(2-morpholinoacetamido)-1-(prop-1-en-2-yl)-2,3,3a,4,5,5a,5b,6,7,7a,8,11,11a,11b,12,13,13a,13b-octadecahydro-1H-cyclopenta[a]chrysen-9-yl)benzoic acid], less than 100 nM.

Turning to `C=C(C)[C@@H]1CC[C@]2(NC(=O)CN3CCSCC3)CC[C@]3(C)[C@H](CC[C@@H]4[C@@]5(C)CC=C(c6ccc(C(=O)O)cc6)C(C)(C)[C@@H]5CC[C@]43C)[C@@H]12` [Example 98, 4-((1R,3aS,5aR,5bR,7aR,11aS,11bR,13aR,13bR)-5a,5b,8,8,11a-pentamethyl-1-(prop-1-en-2-yl)-3a-(2-thiomorpholinoacetamido)-2,3,3a,4,5,5a,5b,6,7,7a,8,11,11a,11b,12,13,13a,13b-octadecahydro-1H-cyclopenta[a]chrysen-9-yl)benzoic acid], the EC50 is less than 100 nM.

Regarding `C=C(C)[C@@H]1CC[C@]2(NC(=O)C(CC3CCCCC3)N3CCS(=O)(=O)CC3)CC[C@]3(C)[C@H](CC[C@@H]4[C@@]5(C)CC=C(c6ccc(C(=O)O)cc6)C(C)(C)[C@@H]5CC[C@]43C)[C@@H]12` (stereo partly drawn) [Example 99, benzoic acid, 4-[(1R,3aS,5aR,5bR,7aR,11aS,11bR,13aR,13bR)-3a-[[3-cyclohexyl-2-(1,1-dioxido-4-thiomorpholinyl)-1-oxopropyl]amino]-2,3,3a,4,5,5a,5b,6,7,7a,8,11,11a,11b,12,13,13a,13b-octadecahydro-5a,5b,8,8,11a-pentamethyl-1-(1-methylethenyl)-1H-cyclopenta[a]chrysen-9-yl]], the EC50 was less than 100 nM. Still for that read-out and setting: the same measure for `C=C(C)[C@@H]1CC[C@]2(NC(=O)CN(C)C3CCS(=O)(=O)C3)CC[C@]3(C)[C@H](CC[C@@H]4[C@@]5(C)CC=C(c6ccc(C(=O)O)cc6)C(C)(C)[C@@H]5CC[C@]43C)[C@@H]12` (stereo partly drawn) [Example 100, benzoic acid, 4-[(1R,3aS,5aR,5bR,7aR,11aS,11bR,13aR,13bR)-2,3,3a,4,5,5a,5b,6,7,7a,8,11,11a,11b,12,13,13a,13b-octadecahydro-5a,5b,8,8,11a-pentamethyl-1-(1-methylethenyl)-3a-[[[methyl(tetrahydro-1,1-dioxido-3-thienyl)amino]acetyl]amino]-1H-cyclopenta[a]chrysen-9-yl]]: less than 100 nM; for `C=C(C)[C@@H]1CC[C@]2(NC(=O)Cc3cnccn3)CC[C@]3(C)[C@H](CC[C@@H]4[C@@]5(C)CC=C(c6ccc(C(=O)O)cc6)C(C)(C)[C@@H]5CC[C@]43C)[C@@H]12` [Example 102, 4-((1R,3aS,5aR,5bR,7aR,11aS,11bR,13aR,13bR)-5a,5b,8,8,11a-pentamethyl-1-(prop-1-en-2-yl)-3a-(2-(pyrazin-2-yl)acetamido)-2,3,3a,4,5,5a,5b,6,7,7a,8,11,11a,11b,12,13,13a,13b-octadecahydro-1H-cyclopenta[a]chrysen-9-yl)benzoic acid]: less than 100 nM. Same read-out and setting: with `C=C(C)[C@@H]1CC[C@]2(NC(=O)Cn3cnnn3)CC[C@]3(C)[C@H](CC[C@@H]4[C@@]5(C)CC=C(c6ccc(C(=O)O)cc6)C(C)(C)[C@@H]5CC[C@]43C)[C@@H]12` [Example 103, 4-((1R,3aS,5aR,5bR,7aR,11aS,11bR,13aR,13bR)-3a-(2-(1H-tetrazol-1-yl)acetamido)-5a,5b,8,8,11a-pentamethyl-1-(prop-1-en-2-yl)-2,3,3a,4,5,5a,5b,6,7,7a,8,11,11a,11b,12,13,13a,13b-octadecahydro-1H-cyclopenta[a]chrysen-9-yl)benzoic acid] the figure was less than 100 nM; with `C=C(C)[C@@H]1CC[C@]2(NC(=O)CN3C(=O)OCc4ccc(Cl)cc43)CC[C@]3(C)[C@H](CC[C@@H]4[C@@]5(C)CC=C(c6ccc(C(=O)O)cc6)C(C)(C)[C@@H]5CC[C@]43C)[C@@H]12` [Example 104, 4-((1R,3aS,5aR,5bR,7aR,11aS,11bR,13aR,13bR)-3a-(2-(7-chloro-2-oxo-2,4-dihydro-1H-benzo[d][1,3]oxazin-1-yl)acetamido)-5a,5b,8,8,11a-pentamethyl-1-(prop-1-en-2-yl)-2,3,3a,4,5,5a,5b,6,7,7a,8,11,11a,11b,12,13,13a,13b-octadecahydro-1H-cyclopenta[a]chrysen-9-yl)benzoic acid], less than 100 nM; with `C=C(C)[C@@H]1CC[C@]2(NC(=O)CN3CCOC3=O)CC[C@]3(C)[C@H](CC[C@@H]4[C@@]5(C)CC=C(c6ccc(C(=O)O)cc6)C(C)(C)[C@@H]5CC[C@]43C)[C@@H]12` [Example 105, 4-((1R,3aS,5aR,5bR,7aR,11aS,11bR,13aR,13bR)-5a,5b,8,8,11a-pentamethyl-3a-(2-(2-oxooxazolidin-3-yl)acetamido)-1-(prop-1-en-2-yl)-2,3,3a,4,5,5a,5b,6,7,7a,8,11,11a,11b,12,13,13a,13b-octadecahydro-1H-cyclopenta[a]chrysen-9-yl)benzoic acid], less than 100 nM. For `C=C(C)[C@@H]1CC[C@]2(NC(=O)CNCCO)CC[C@]3(C)[C@H](CC[C@@H]4[C@@]5(C)CC=C(c6ccc(C(=O)O)cc6)C(C)(C)[C@@H]5CC[C@]43C)[C@@H]12` [Example 106, 4-((1R,3aS,5aR,5bR,7aR,11aS,11bR,13aR,13bR)-3a-(2-(2-hydroxyethylamino)acetamido)-5a,5b,8,8,11a-pentamethyl-1-(prop-1-en-2-yl)-2,3,3a,4,5,5a,5b,6,7,7a,8,11,11a,11b,12,13,13a,13b-octadecahydro-1H-cyclopenta[a]chrysen-9-yl)benzoic acid], the EC50 was less than 100 nM. Same read-out and setting: with `C=C(C)[C@@H]1CC[C@]2(NC(=O)CN3C(=O)OC[C@@H]3c3ccccc3)CC[C@]3(C)[C@H](CC[C@@H]4[C@@]5(C)CC=C(c6ccc(C(=O)O)cc6)C(C)(C)[C@@H]5CC[C@]43C)[C@@H]12` [Example 107, 4-((1R,3aS,5aR,5bR,7aR,11aS,11bR,13aR,13bR)-5a,5b,8,8,11a-pentamethyl-3a-(2-((S)-2-oxo-4-phenyloxazolidin-3-yl)acetamido)-1-(prop-1-en-2-yl)-2,3,3a,4,5,5a,5b,6,7,7a,8,11,11a,11b,12,13,13a,13b-octadecahydro-1H-cyclopenta[a]chrysen-9-yl)benzoic acid] the figure was less than 100 nM.

Staying with this assay, now noted: luciferase activity in cells infected for 4-5 days with NLRluc recombinants, serial dilutions of inhibitor; class symbols (key in Table 1); read-out: EC50.
For `C=C(C)[C@@H]1CC[C@]2(NC(=O)CC(c3cccs3)N3CCS(=O)(=O)CC3)CC[C@]3(C)[C@H](CC[C@@H]4[C@@]5(C)CC=C(c6ccc(C(=O)O)cc6)C(C)(C)[C@@H]5CC[C@]43C)[C@@H]12` (stereo partly drawn) [Example 101], the EC50 is less than 100 nM.
